Measured values from BindingDB's records for patent WO2025051920 (Sanofi-Aventis Deutschland, 2025).
Bridge positions count the residues as written; N and C are the ends. Square brackets hold non-standard residues; d marks the D form. Peptide text beside a SMILES is read from it. 2Nal = N[C@@H](Cc1ccc2ccccc2c1)C(=O)O; dOrn = NCCC[C@@H](N)C(=O)O; Aib = CC(C)(N)C(=O)O

The compounds below were run against Interleukin-23 subunit alpha/receptor (UniProt Q5VWK5) (assay: ELISA assay for specific human IL-23R inhibitors).
Procedure: A 384-well plate was coated with 50 µl/well of human IL-23 at a final concentration of […] and incubated overnight at 4°C. The wells were washed 3 times with […] wash buffer and blocked with […] blocking buffer for 60 minutes at room temperature and washed again. 20 µl of serially diluted test peptides was added to each well and subsequently 20 µl of recombinant human IL-23R-Fc chimera at final concentration of […]. The plate was incubated for 60 minutes at room temperature. After the wells were washed, bound IL-23R-Fc was detected with goat anti-hu- IgG 1 -HRP antibody. Signals were visualized with QuantaBlu Fluorogenic Peroxidase Substrate.

Sequence of Interleukin-23 subunit alpha/receptor (Q9NPF7 whole entry): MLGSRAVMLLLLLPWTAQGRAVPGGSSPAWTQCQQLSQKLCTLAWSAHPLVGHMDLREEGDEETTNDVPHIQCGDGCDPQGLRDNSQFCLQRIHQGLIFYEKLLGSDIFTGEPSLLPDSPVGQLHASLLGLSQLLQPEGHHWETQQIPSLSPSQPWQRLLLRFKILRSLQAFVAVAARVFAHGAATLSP
Sequence of Interleukin-23 subunit alpha/receptor (Q5VWK5 whole entry): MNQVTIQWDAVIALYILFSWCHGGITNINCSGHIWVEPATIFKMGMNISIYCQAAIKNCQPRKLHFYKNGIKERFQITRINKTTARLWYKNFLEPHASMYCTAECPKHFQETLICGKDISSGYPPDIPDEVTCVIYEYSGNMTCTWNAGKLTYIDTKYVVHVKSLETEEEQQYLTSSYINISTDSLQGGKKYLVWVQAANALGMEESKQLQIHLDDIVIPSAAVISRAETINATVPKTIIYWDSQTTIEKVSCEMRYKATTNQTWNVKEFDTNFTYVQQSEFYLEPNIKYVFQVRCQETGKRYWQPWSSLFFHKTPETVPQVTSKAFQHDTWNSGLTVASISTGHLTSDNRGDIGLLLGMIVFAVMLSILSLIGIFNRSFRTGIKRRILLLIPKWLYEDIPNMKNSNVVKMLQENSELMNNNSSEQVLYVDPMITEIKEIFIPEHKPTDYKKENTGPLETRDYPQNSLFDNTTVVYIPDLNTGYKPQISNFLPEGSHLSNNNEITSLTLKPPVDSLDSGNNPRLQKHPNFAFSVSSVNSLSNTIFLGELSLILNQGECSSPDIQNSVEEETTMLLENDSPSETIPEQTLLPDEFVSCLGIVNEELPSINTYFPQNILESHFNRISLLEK

Row | Structure (SMILES) | IC50 [nM]
1 | COc1ccc(C[C@@H]2NC(=O)[C@H](CC(C)C)NC(=O)[C@H](CCC(N)=O)NC(=O)[C@H](Cc3c[nH]c4ccccc34)NC(=O)[C@H]([C@@H](C)O)NC(=O)[C@H](CC(N)=O)NC(=O)[C@H](NC(C)=O)CCCCNC(=O)C[C@@H](C(=O)N[C@@H](CC(N)=O)C(=O)N[C@@H](CC(N)=O)C(=O)O)NC(=O)C(C)(C)NC(=O)[C@H](Cc3ccc4ccccc4c3)NC2=O)cc1 [WO2025051920, Example 1] | 0.63
2 | COc1ccc(C[C@@H]2NC(=O)[C@H](CCCNC(=N)N)NC(=O)[C@H](CCC(N)=O)NC(=O)[C@H](Cc3c[nH]c4ccccc34)NC(=O)[C@H]([C@@H](C)O)NC(=O)[C@H](CC(N)=O)NC(=O)[C@@H](NC(C)=O)CC(=O)NCCCC(C(=O)N[C@@H](CC(N)=O)C(=O)N[C@@H](CC(N)=O)C(=O)O)NC(=O)C(C)(C)NC(=O)[C@H](Cc3ccc4ccccc4c3)NC2=O)cc1 (stereo not given in full) [WO2025051920, Example 6] | 1.96
3 | COc1ccc(C[C@@H]2NC(=O)[C@H](CC(C)C)NC(=O)[C@H](CCC(N)=O)NC(=O)[C@H](Cc3c[nH]c4ccccc34)NC(=O)[C@H]([C@@H](C)O)NC(=O)[C@H](CC(N)=O)NC(=O)[C@H](NC(C)=O)CCCCNC(=O)C[C@@H](C(=O)N[C@@H](CC(N)=O)C(=O)N[C@@H](CC(N)=O)C(=O)O)NC(=O)C(C)(C)NC(=O)[C@H](Cc3cccc4ccccc34)NC2=O)cc1 [WO2025051920, Example 7] | 2.47
4 | COc1ccc(C[C@@H]2NC(=O)[C@H](C)NC(=O)[C@H](CCC(N)=O)NC(=O)[C@H](Cc3c[nH]c4ccccc34)NC(=O)[C@H]([C@@H](C)O)NC(=O)[C@H](CC(N)=O)NC(=O)[C@H](NC(C)=O)CCCCNC(=O)C[C@@H](C(=O)N[C@@H](CC(N)=O)C(=O)N[C@@H](CC(N)=O)C(=O)O)NC(=O)C(C)(C)NC(=O)[C@H](Cc3cccc4ccccc34)NC2=O)cc1 [WO2025051920, Example 8] | 2.74
5 | COc1ccc(C[C@@H]2NC(=O)[C@H](CCCNC(=N)N)NC(=O)[C@H](CCC(N)=O)NC(=O)[C@H](Cc3cn(C)c4ccccc34)NC(=O)[C@H]([C@@H](C)O)NC(=O)[C@H](CC(N)=O)NC(=O)[C@H](NC(C)=O)CCCCNC(=O)C[C@@H](C(=O)N[C@@H](CC(N)=O)C(=O)N[C@@H](CC(N)=O)C(=O)O)NC(=O)[C@H](CCCCNC(C)=O)NC(=O)[C@H](Cc3ccc4ccccc4c3)NC2=O)cc1 [WO2025051920, Example 10] | 3.6
6 | COc1ccc(C[C@@H]2NC(=O)[C@H](CCCNC(=N)N)NC(=O)[C@H](CCC(N)=O)NC(=O)[C@H](Cc3c[nH]c4ccccc34)NC(=O)[C@H]([C@@H](C)O)NC(=O)[C@H](CC(N)=O)NC(=O)[C@H](NC(C)=O)CC(=O)NCCCC[C@@H](C(=O)N[C@@H](CC(N)=O)C(=O)N[C@@H](CC(N)=O)C(=O)O)NC(=O)C(C)(C)NC(=O)[C@H](Cc3ccc4ccccc4c3)NC2=O)cc1 [WO2025051920, Example 12] | 14.9
7 | COc1ccc(C[C@@H]2NC(=O)[C@H](CCCNC(=N)N)NC(=O)[C@H](CCC(N)=O)NC(=O)[C@H](Cc3c[nH]c4ccccc34)NC(=O)[C@H]([C@@H](C)O)NC(=O)[C@H](CC(N)=O)NC(=O)[C@H](NC(C)=O)CC(=O)NCCC[C@@H](C(=O)N[C@@H](CC(N)=O)C(=O)N[C@@H](CC(N)=O)C(=O)O)NC(=O)C(C)(C)NC(=O)[C@H](Cc3ccc4ccccc4c3)NC2=O)cc1 [WO2025051920, Example 13] | 6.24
8 | COc1ccc(C[C@@H]2NC(=O)[C@H](CCCNC(=N)N)NC(=O)[C@H](CCC(N)=O)NC(=O)[C@H](Cc3c[nH]c4ccccc34)NC(=O)[C@H]([C@@H](C)O)NC(=O)[C@H](CC(N)=O)NC(=O)[C@H](NC(C)=O)CCCCNC(=O)C[C@@H](C(=O)N[C@@H](CC(N)=O)C(=O)N[C@@H](CC(N)=O)C(=O)O)NC(=O)[C@H](CCCCNC(C)=O)NC(=O)[C@H](Cc3cccc4ccccc34)NC2=O)cc1 [WO2025051920, Example 17] | 7.87
9 | COc1ccc(C[C@@H]2NC(=O)[C@H](CCCNC(=N)N)NC(=O)[C@H](CCC(N)=O)NC(=O)[C@H](Cc3c[nH]c4ccccc34)NC(=O)[C@H]([C@@H](C)O)NC(=O)[C@H](CC(N)=O)NC(=O)[C@H](NC(C)=O)CCCCNC(=O)C[C@@H](C(=O)N[C@@H](CC(N)=O)C(=O)N[C@@H](CC(N)=O)C(=O)O)NC(=O)[C@H](CCCNC(N)=O)NC(=O)[C@H](Cc3cccc4ccccc34)NC2=O)cc1 [WO2025051920, Example 18] | 11.7
10 | COc1ccc(C[C@@H]2NC(=O)C(C)(C)NC(=O)[C@H](CCC(N)=O)NC(=O)[C@H](Cc3c[nH]c4ccccc34)NC(=O)[C@H]([C@@H](C)O)NC(=O)[C@H](CC(N)=O)NC(=O)[C@H](NC(C)=O)CCCCNC(=O)C[C@@H](C(=O)N[C@@H](CC(N)=O)C(=O)N[C@@H](CC(N)=O)C(=O)O)NC(=O)C(C)(C)NC(=O)[C@H](Cc3cccc4ccccc34)NC2=O)cc1 [WO2025051920, Example 21] | 16.9
11 | COc1ccc(C[C@@H]2NC(=O)[C@H](CCCNC(=N)N)NC(=O)[C@H](CCC(N)=O)NC(=O)[C@H](Cc3c[nH]c4ccccc34)NC(=O)[C@H]([C@@H](C)O)NC(=O)[C@H](CC(N)=O)NC(=O)[C@H](NC(C)=O)CCCNC(=O)C[C@@H](C(=O)N[C@@H](CC(N)=O)C(=O)N[C@@H](CC(N)=O)C(N)=O)NC(=O)C(C)(C)NC(=O)[C@H](Cc3ccc4ccccc4c3)NC2=O)cc1 [WO2025051920, Example 27] (Ac-[dOrn]NTWQRY(Me)[2Nal][Aib]DNN-NH2; lactam 1-10) | 19.7
12 | COc1ccc(C[C@@H]2NC(=O)[C@H](CCCNC(=N)N)NC(=O)[C@H](CCC(N)=O)NC(=O)[C@H](Cc3c[nH]c4ccccc34)NC(=O)[C@H]([C@@H](C)O)NC(=O)[C@H](CC(N)=O)NC(=O)[C@H](NC(C)=O)CCCCNC(=O)C[C@@H](C(=O)N[C@@H](CC(N)=O)C(=O)N[C@@H](CC(N)=O)C(=O)O)NC(=O)[C@H](CCCCN)NC(=O)[C@H](Cc3ccc4ccccc4c3)NC2=O)cc1 [WO2025051920, Example 28] | 9.03

Further compounds by falling IC50, results first:

Row | IC50 [nM] | Structure (SMILES)
13 | 48.4 | COc1ccc(C[C@@H]2NC(=O)[C@H](CCCNC(=N)N)NC(=O)[C@H](CCC(N)=O)NC(=O)[C@H](Cc3c[nH]c4ccccc34)NC(=O)[C@H]([C@@H](C)O)NC(=O)[C@H](CC(N)=O)NC(=O)[C@H](NC(C)=O)CCCNC(=O)CC[C@@H](C(=O)N[C@@H](CC(N)=O)C(=O)N[C@@H](CC(N)=O)C(=O)O)NC(=O)C(C)(C)NC(=O)[C@H](Cc3cccc4ccccc34)NC2=O)cc1 [WO2025051920, Example 22]
14 | 18.9 | COc1ccc(C[C@@H]2NC(=O)[C@H](CCCNC(=N)N)NC(=O)[C@H](CCC(N)=O)NC(=O)[C@H](Cc3c[nH]c4ccccc34)NC(=O)[C@H]([C@@H](C)O)NC(=O)[C@H](CC(N)=O)NC(=O)[C@H](NC(C)=O)CC(=O)NCCCC[C@@H](C(=O)N[C@@H](CC(N)=O)C(=O)N[C@@H](CC(N)=O)C(=O)O)NC(=O)C(C)(C)NC(=O)[C@H](Cc3cccc4ccccc34)NC2=O)cc1 [WO2025051920, Example 11]
15 | 15.9 | COc1ccc(C[C@@H]2NC(=O)[C@H](C(C)C)NC(=O)[C@H](CCC(N)=O)NC(=O)[C@H](Cc3c[nH]c4ccccc34)NC(=O)[C@H]([C@@H](C)O)NC(=O)[C@H](CC(N)=O)NC(=O)[C@H](NC(C)=O)CCCCNC(=O)C[C@@H](C(=O)N[C@@H](CC(N)=O)C(=O)N[C@@H](CC(N)=O)C(=O)O)NC(=O)C(C)(C)NC(=O)[C@H](Cc3cccc4ccccc34)NC2=O)cc1 [WO2025051920, Example 20]
16 | 15.6 | COc1ccc(C[C@@H]2NC(=O)[C@H](CCCNC(=N)N)NC(=O)[C@H](CCC(N)=O)NC(=O)[C@H](Cc3c[nH]c4ccccc34)NC(=O)[C@H]([C@@H](C)O)NC(=O)[C@H](CC(N)=O)NC(=O)[C@H](NC(C)=O)CCCCNC(=O)C[C@@H](C(=O)N[C@@H](CC(N)=O)C(=O)N[C@@H](CC(N)=O)C(=O)O)NC(=O)[C@H](CCC(N)=O)NC(=O)[C@H](Cc3cccc4ccccc34)NC2=O)cc1 [WO2025051920, Example 19]
17 | 9.61 | COc1ccc(C[C@@H]2NC(=O)[C@H](CCCNC(=N)N)NC(=O)[C@H](CCC(N)=O)NC(=O)[C@H](Cc3cn(C)c4ccccc34)NC(=O)[C@H]([C@@H](C)O)NC(=O)[C@H](CC(N)=O)NC(=O)[C@H](NC(C)=O)CCCCNC(=O)C[C@@H](C(=O)N[C@@H](CC(N)=O)C(=O)N[C@@H](CC(N)=O)C(=O)O)NC(=O)[C@@H](Cc3cscn3)NC(=O)[C@H](Cc3ccc4ccccc4c3)NC2=O)cc1 [WO2025051920, Example 25]
18 | 5.42 | CC(=O)N[C@@H]1CCCCNC(=O)C[C@@H](C(=O)N[C@@H](CC(N)=O)C(=O)N[C@@H](CC(N)=O)C(=O)O)NC(=O)C(C)(C)NC(=O)[C@H](Cc2cccc3ccccc23)NC(=O)[C@H](Cc2ccc(O)cc2)NC(=O)[C@H](CCCNC(=N)N)NC(=O)[C@H](CCC(N)=O)NC(=O)[C@H](Cc2c[nH]c3ccccc23)NC(=O)[C@H]([C@@H](C)O)NC(=O)[C@H](CC(N)=O)NC1=O [WO2025051920, Example 14]
19 | 1.59 | CC(=O)N[C@@H]1CCCCNC(=O)C[C@@H](C(=O)N[C@@H](CC(N)=O)C(=O)N[C@@H](CC(N)=O)C(=O)O)NC(=O)C(C)(C)NC(=O)[C@H](Cc2ccc3ccccc3c2)NC(=O)[C@H](Cc2ccc(O)cc2)NC(=O)[C@H](CCCNC(=N)N)NC(=O)[C@H](CCC(N)=O)NC(=O)[C@H](Cc2c[nH]c3ccccc23)NC(=O)[C@H]([C@@H](C)O)NC(=O)[C@H](CC(N)=O)NC1=O [WO2025051920, Example 4]
20 | 0.69 | COc1ccc(C[C@@H]2NC(=O)[C@H](C)NC(=O)[C@H](CCC(N)=O)NC(=O)[C@H](Cc3c[nH]c4ccccc34)NC(=O)[C@H]([C@@H](C)O)NC(=O)[C@H](CC(N)=O)NC(=O)[C@H](NC(C)=O)CCCCNC(=O)C[C@@H](C(=O)N[C@@H](CC(N)=O)C(=O)N[C@@H](CC(N)=O)C(=O)O)NC(=O)C(C)(C)NC(=O)[C@H](Cc3ccc4ccccc4c3)NC2=O)cc1 [WO2025051920, Example 2]
